Activity calls are given as the source filed them.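 How the source made its calls: active means IC50 below 20 µM in the dose response test; inactive means the rest.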
target: Type-1 angiotensin II receptor (Homo sapiens) (UniProt P30556); experiment: AT1 receptor antagonists, beta-arrestin recruitment, SAR follow-up, selectivity assay for APJ antagonist project, cell-based, CHO-K1 PathHunter, luminescence, set 3 (AID 492984); conditions: CHO-K1 AGTR1 PathHunter beta-arrestin
Sequence (P30556 whole entry, looked up): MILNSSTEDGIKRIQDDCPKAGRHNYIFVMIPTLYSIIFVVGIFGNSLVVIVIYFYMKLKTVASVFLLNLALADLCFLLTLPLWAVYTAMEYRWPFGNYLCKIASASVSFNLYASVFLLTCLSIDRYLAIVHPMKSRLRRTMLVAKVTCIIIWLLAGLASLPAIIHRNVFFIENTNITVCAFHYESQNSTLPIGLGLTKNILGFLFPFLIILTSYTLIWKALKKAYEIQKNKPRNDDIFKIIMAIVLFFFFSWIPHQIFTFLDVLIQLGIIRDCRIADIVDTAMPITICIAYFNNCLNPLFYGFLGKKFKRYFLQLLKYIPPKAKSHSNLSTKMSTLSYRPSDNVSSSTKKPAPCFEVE

Row | Structure (SMILES) | IC50
1 | O=C(Oc1coc(CSc2ncccn2)cc1=O)c1ccc([N+](=O)[O-])cc1 | > 79 µM (inactive)
2 | Cc1ccnc(SCc2cc(=O)c(OC(=O)c3cccc(C#N)c3)co2)n1 | > 79 µM (inactive)
3 | O=c1cc(CSc2ccc(F)cc2)occ1O | > 79 µM (inactive)

Further lines, results first:

Row | IC50 | Structure (SMILES)
4 | > 79 µM (inactive) | Cc1cc(C)nc(SCc2cc(=O)c(OS(=O)(=O)c3ccc([N+](=O)[O-])cc3)co2)n1
5 | > 79 µM (inactive) | O=C(Oc1coc(CCl)cc1=O)c1ccc(Cl)c([N+](=O)[O-])c1
6 | > 79 µM (inactive) | Cc1cc(C)nc(SCc2cc(=O)c(OS(=O)(=O)c3ccccc3)co2)n1
7 | > 79 µM (inactive) | Cc1ccnc(SCc2cc(=O)c(NC(=O)c3ccccc3)co2)n1

Source: PubChem BioAssay AID492984 (Sanford-Burnham Center for Chemical Genomics, 2010)
